From article PMC5358098 (ACS chemical neuroscience, 2016)
Where two headings read alike, the source gives them in different places.

Experiments:
CB1R [1] = molecular target: T1, CB1R (Mus musculus, UniProt P47746); assay type: cell-based; settings: Neuro2a, 10 min
CB1R [2] = molecular target: T1, CB1R; test: Operational model bias analysis, Neuro2a cells; assay type: cell-based; settings: for ΔΔlog R β-arrestin1/pPLCβ3: reference 2-AG + GAT100
CB1R [3] = molecular target: T1, CB1R; assay type: cell-based; settings: Neuro2a, 10 min; remark: listed apart in the source
CB1R [4] = molecular target: T1, CB1R; test: Operational model bias analysis, STHdh^Q7/Q7 cells; settings: STHdh^Q7/Q7
CB1R [5] = settings: cited from earlier work
CB1R [6] = molecular target: T2, CB1R (Homo sapiens, UniProt P21554); test: cell-based; assay type: cell-based
CB1R [7] = molecular target: T2, CB1R; test: [3H]SR141716A equilibrium binding, hCB1R CHO cell membranes
CB1R [8] = assay type: cell-based; settings: mean of data for the pathway (Table 3), all cells and orthosteric ligands
CB1R [9] = molecular target: T2, CB1R; assay type: cell-based; settings: Neuro2a, 30 min
CB1R [10] = assay type: cell-based; settings: mean of data for the pathway (Table 2), all cells and orthosteric ligands
CB1R [11] = molecular target: T2, CB1R; assay type: cell-based; settings: HEK293A, 30 min
CB1R [12] = molecular target: T2, CB1R; test: cell-based
CB1R [13] = molecular target: T2, CB1R; test: cell-based; assay type: cell-based; remark: listed apart in the source
CB1R [14] = test system: CB1R
CB1R [15] = molecular target: T2, CB1R; assay type: cell-based; settings: HEK293A, 10 min
CB1R [16] = molecular target: T1, CB1R; settings: STHdh^Q7/Q7; 1 μM + 500 nM CP55,940
hCB1R = test: Operational model bias analysis, HEK293A cells; assay type: cell-based, human; settings: HEK293A; for ΔΔlog R β-arrestin1/cAMP / ΔΔlog R β-arrestin1/pPLCβ3: reference 2-AG + GAT100
[17] = 500 nM 2-AG + 1 nM-10 μM allosteric modulator
[18] = 500 nM AEA + 1 nM-10 μM allosteric modulator
[19] = 500 nM CP55,940 + 1 nM-10 μM allosteric modulator

T1 sequence (P47746 whole entry): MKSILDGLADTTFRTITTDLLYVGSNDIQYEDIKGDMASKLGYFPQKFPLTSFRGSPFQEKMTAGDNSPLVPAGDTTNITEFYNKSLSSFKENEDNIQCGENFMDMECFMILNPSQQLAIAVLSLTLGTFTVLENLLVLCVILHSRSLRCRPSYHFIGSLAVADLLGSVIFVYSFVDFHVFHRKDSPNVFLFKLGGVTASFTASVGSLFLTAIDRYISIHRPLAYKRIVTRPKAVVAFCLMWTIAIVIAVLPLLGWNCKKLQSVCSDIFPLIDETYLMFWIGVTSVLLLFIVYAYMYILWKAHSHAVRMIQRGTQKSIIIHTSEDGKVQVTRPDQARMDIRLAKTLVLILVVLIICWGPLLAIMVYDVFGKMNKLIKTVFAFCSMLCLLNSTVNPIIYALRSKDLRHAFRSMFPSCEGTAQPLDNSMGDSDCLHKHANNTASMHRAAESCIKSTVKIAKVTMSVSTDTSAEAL
T2 sequence (P21554 whole entry): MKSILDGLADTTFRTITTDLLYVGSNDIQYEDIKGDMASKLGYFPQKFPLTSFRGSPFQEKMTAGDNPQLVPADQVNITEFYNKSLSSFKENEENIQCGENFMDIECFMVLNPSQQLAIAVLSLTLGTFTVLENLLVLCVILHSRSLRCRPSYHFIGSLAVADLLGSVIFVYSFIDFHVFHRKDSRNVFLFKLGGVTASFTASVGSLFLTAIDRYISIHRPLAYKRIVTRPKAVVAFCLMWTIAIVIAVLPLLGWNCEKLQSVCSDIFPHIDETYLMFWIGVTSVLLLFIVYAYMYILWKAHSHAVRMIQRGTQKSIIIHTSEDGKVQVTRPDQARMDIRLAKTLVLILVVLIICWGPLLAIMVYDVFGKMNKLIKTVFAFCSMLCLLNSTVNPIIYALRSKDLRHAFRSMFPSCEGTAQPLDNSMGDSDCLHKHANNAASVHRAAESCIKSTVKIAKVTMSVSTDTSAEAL

CCc1c(C(=O)NCCc2ccc(N3CCCCC3)cc2)[nH]c2ccc(Cl)cc12 [Org27569, 5-chloro-3-ethyl-N-(4-(piperidin-1-yl)phenethyl)-1H-indole-2-carboxamide]
Emax pPLCβ3/Total PLCβ3, 2-AG (CB1R [1]; 1 nM-10 μM 2-AG + 1 μM NAM): 0.53 ± 0.02
Emax pPLCβ3/Total PLCβ3, AEA (CB1R [1]; 1 nM-10 μM AEA + 1 μM NAM): 0.52 ± 0.02 ^††
Emax pPLCβ3/Total PLCβ3, CP55,940 (CB1R [1]; 1 nM-10 μM CP55,940 + 1 μM NAM): 0.58 ± 0.02 ^††
BF β-arrestin1/pERK1/2 (CB1R [2]; [17]): 3.2
BF β-arrestin1/pPLCβ3 (CB1R [2]; [17]): 0.6
ΔΔlog R β-arrestin1/pPLCβ3 (CB1R [2]; [17]): –0.2 ± 0.2
BF β-arrestin1/pERK1/2 (CB1R [2]; [18]): 1.6
BF β-arrestin1/pPLCβ3 (CB1R [2]; [18]): 4.0
ΔΔlog R β-arrestin1/pPLCβ3 (CB1R [2]; [18]): 0.6 ± 0.2
BF β-arrestin1/pERK1/2 (CB1R [2]; [19]): 3.2
BF β-arrestin1/pPLCβ3 (CB1R [2]; [19]): 4.0
ΔΔlog R β-arrestin1/pPLCβ3 (CB1R [2]; [19]): 0.6 ± 0.4
Emax pERK1/2/Total ERK1/2, 2-AG (CB1R [3]; 1 nM-10 μM 2-AG + 1 μM NAM): 0.48 ± 0.03
Emax pERK1/2/Total ERK1/2, AEA (CB1R [3]; 1 nM-10 μM AEA + 1 μM NAM): 0.44 ± 0.02
Emax pERK1/2/Total ERK1/2, CP55,940 (CB1R [3]; 1 nM-10 μM CP55,940 + 1 μM NAM): 0.43 ± 0.02
BF β-arrestin1/pERK1/2 (CB1R [4]; [17]): 0.5
BF β-arrestin1/pPLCβ3 (CB1R [4]; [17]): 0.3
BF β-arrestin1/pERK1/2 (CB1R [4]; [18]): 1.3
BF β-arrestin1/pPLCβ3 (CB1R [4]; [18]): 0.2
BF β-arrestin1/pERK1/2 (CB1R [4]; [19]): 0.3
BF β-arrestin1/pPLCβ3 (CB1R [4]; [19]): 0.8
effect on CP55,940 equilibrium binding by CB1R (CB1R [5]): increase CP55,940 equilibrium binding
Emax pPLCβ3/Total PLCβ3, 2-AG (CB1R [6]; HEK293A, 1 nM-10 μM 2-AG + 1 μM NAM, 10 min): 0.52 ± 0.02
Emax pPLCβ3/Total PLCβ3, AEA (CB1R [6]; HEK293A, 1 nM-10 μM AEA + 1 μM NAM, 10 min): 0.49 ± 0.02
Emax pPLCβ3/Total PLCβ3, CP55,940 (CB1R [6]; HEK293A, 1 nM-10 μM CP55,940 + 1 μM NAM, 10 min): 0.60 ± 0.03
IC50 (CB1R [6]; IC50, PLCβ3 phosphorylation, CP55,940): 151 nM
EC50 (CB1R [7]): 2520 nM
Emax (CB1R [7]; read-out: Emax, [3H]SR141716A binding): -17.6%
Emax, ERK (pathway ligand bias summary) (CB1R [8]): 0.45 ± 0.01
Emax (BRETEff), 2-AG (CB1R [9]; 1 nM-10 μM 2-AG + 1 μM NAM): 0.47 ± 0.03
Emax (BRETEff), AEA (CB1R [9]; 1 nM-10 μM AEA + 1 μM NAM): 0.44 ± 0.02
Emax (BRETEff), CP55,940 (CB1R [9]; 1 nM-10 μM CP55,940 + 1 μM NAM): 0.60 ± 0.05
Emax, PLCβ3 (pathway ligand bias summary) (CB1R [10]): 0.55 ± 0.01
Emax (BRETEff), 2-AG (CB1R [11]; 1 nM-10 μM 2-AG + 1 μM NAM): 0.49 ± 0.03
Emax (BRETEff), AEA (CB1R [11]; 1 nM-10 μM AEA + 1 μM NAM): 0.49 ± 0.02
Emax (BRETEff), CP55,940 (CB1R [11]; 1 nM-10 μM CP55,940 + 1 μM NAM): 0.58 ± 0.03
IC50 (CB1R [12]): 236 nM
Emax, β-arrestin1 (pathway ligand bias summary) (CB1R [12]; mean of data for the pathway (Table 1), all cells and orthosteric ligands): 0.50 ± 0.02
Emax, cAMP (pathway ligand bias summary) (CB1R [13]): 0.31 ± 0.04 ^†
effect on cAMP levels in the absence of orthosteric agonists (inverse agonism) (CB1R [13]; HEK-CRE, 10 μM forskolin + 1 nM to 10 μM compound alone, 4 h): increased cAMP levels significantly
IC50 (CB1R [13]; IC50, cAMP, CP55,940): 969 nM
Emax (CB1R [13]; read-out: Emax (% cAMP inhibition), CP55,940): 25.7 ± 1.64%
Emax, 2-AG (probe dependence summary) (CB1R [14]; mean of data for 2-AG (Tables 1-4)): 0.49 ± 0.02
Emax, AEA (probe dependence summary) (CB1R [14]; mean of data for AEA (Tables 1-4)): 0.45 ± 0.03
Emax, CP55,940 (probe dependence summary) (CB1R [14]; mean of data for CP55,940 (Tables 1-4)): 0.50 ± 0.04
Emax, HEK293A (cell dependence summary) (CB1R [14]; mean of data for HEK293A (Tables 1-3)): 0.49 ± 0.02
Emax, Neuro2a (cell dependence summary) (CB1R [14]; mean of data for Neuro2a (Tables 1-3)): 0.50 ± 0.02
Emax, STHdh^Q7/Q7 (cell dependence summary) (CB1R [14]; mean of data for STHdh^Q7/Q7 (Tables 1-3)): 0.51 ± 0.02
Emax pERK1/2/Total ERK1/2, 2-AG (CB1R [15]; 1 nM-10 μM 2-AG + 1 μM NAM): 0.46 ± 0.02
Emax pERK1/2/Total ERK1/2, AEA (CB1R [15]; 1 nM-10 μM AEA + 1 μM NAM): 0.42 ± 0.02
Emax pERK1/2/Total ERK1/2, CP55,940 (CB1R [15]; 1 nM-10 μM CP55,940 + 1 μM NAM): 0.40 ± 0.01
effect on CP55,940-induced CB1R internalization (fraction of CB1R at the plasma membrane) (CB1R [16]): reversed this effect
BF β-arrestin1/cAMP (hCB1R; [17]): 0.2
BF β-arrestin1/pERK1/2 (hCB1R; [17]): 0.1
BF β-arrestin1/pPLCβ3 (hCB1R; [17]): 0.1
ΔΔlog R β-arrestin1/cAMP (hCB1R; [17]): –0.6 ± 0.8
ΔΔlog R β-arrestin1/pPLCβ3 (hCB1R; [17]): –1.0 ± 0.9
BF β-arrestin1/cAMP (hCB1R; [18]): 0.1
BF β-arrestin1/pERK1/2 (hCB1R; [18]): 15.8
BF β-arrestin1/pPLCβ3 (hCB1R; [18]): 0.03
ΔΔlog R β-arrestin1/cAMP (hCB1R; [18]): –1.2 ± 0.6
ΔΔlog R β-arrestin1/pPLCβ3 (hCB1R; [18]): –1.6 ± 0.6
BF β-arrestin1/cAMP (hCB1R; [19]): 1.0
BF β-arrestin1/pERK1/2 (hCB1R; [19]): 4.0
BF β-arrestin1/pPLCβ3 (hCB1R; [19]): 0.5
ΔΔlog R β-arrestin1/cAMP (hCB1R; [19]): 0.0 ± 0.6
ΔΔlog R β-arrestin1/pPLCβ3 (hCB1R; [19]): –0.3 ± 0.1
